The values below are quoted from earlier work in patent US7402578B2, “Methods for inhibiting cognitive deterioration in adults with down's syndrome” (Corcept Therapeutics, Inc., priority 2001, dated 2008).

SMILES strings stand for the structures.

The conditions of data set [1]: in one study (Kawai).
The subject of data set [2] is cognitive function in DS children. Conditions: Lobaugh et al. 2001.

Turning to `CC#C[C@]1(O)CC[C@H]2[C@@H]3CCC4=CC(=O)CCC4=C3[C@@H](c3ccc(N(C)C)cc3)C[C@@]21C` [Mifepristone, 17-beta-hydroxy-11-beta-(4-dimethylaminophenyl)-17-alpha-(1-propynyl)-estra-4,9-dien-3-one], in data set [1], the “fraction of the daily dose excreted in the urine” value is listed as “less than 0.5%”.
Consider `NC(=O)CN1CCCC1=O` [Piracetam], for which the “enhancement of cognitive function” value in data set [2] is “failed to enhance cognitive function”.
